This passage reports IC50 results from US10865191B2, “Heterocyclic compounds useful as modulators of TNF alpha” (BRISTOL-MYERS SQUIBB COMPANY, priority 2015, dated 2020).

Chain of TNFα (P01375 77-233 limits assumed): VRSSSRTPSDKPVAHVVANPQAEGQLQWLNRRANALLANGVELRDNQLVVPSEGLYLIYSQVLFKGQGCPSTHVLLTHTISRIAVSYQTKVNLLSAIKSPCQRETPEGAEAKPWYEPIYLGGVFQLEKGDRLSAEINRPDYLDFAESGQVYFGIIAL

The target in this experiment is TNFα (Homo sapiens, UniProt P01375). Nature of the experiment: TNF induced HEK-Blue assay (NF-kB-driven secreted alkaline phosphatase reporter). Type of experiment: cell-based. As to conditions: TNFα 0.5 ng/mL, HEK-Blue-CD40L cells, 18 h; read-out: TNF induced HEK-Blue assay IC50 value. In outline:
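HEK-Blue-CD40L cells (NF-kB-driven SEAP reporter), 20,000/well, added after 30 min pre-incubation of compound (0.004–25 μM final) with TNFα 0.5 ng/mL final at 37 °C; 18 h incubation. SEAP read with QUANTI-Blue at 620 nm; IC50 from 4-parameter logistic fit, normalized to unstimulated and stimulated DMSO controls.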
For `Cc1nc2ccccc2c(N[C@H](C)c2cc(-c3cn[nH]c3)ccc2F)c1Cl` [Example 533, (R)-3-chloro-N-(1-(2-fluoro-5-(1H-pyrazol-4-yl)phenyl)ethyl)-2-methylquinolin-4-amine], the IC50 was less than 1000 nM.

Consider `Cc1ncc(-c2ccc(F)c([C@@H](C)Nc3c(Cl)c(C)nc4ccccc34)c2)cn1` [Example 534, (R)-3-chloro-N-(1-(2-fluoro-5-(2-methylpyrimidin-5-yl)phenyl)ethyl)-2-methylquinolin-4-amine], for which the IC50 was less than 1000 nM.

For `Cc1ncc(-c2ccc(F)c([C@@H](C)Nc3c(Cl)cnc4ccccc34)c2)cn1` [Example 535, (R)-3-chloro-N-(1-(2-fluoro-5-(2-methylpyrimidin-5-yl)phenyl)ethyl)quinolin-4-amine], the IC50 was less than 1000 nM.

On to `C[C@@H](Nc1c(Cl)cnc2ccccc12)c1cc(-c2cnc(N(C)C)nc2)ccc1F` [Example 536, (R)-3-chloro-N-(1-(5-(2-(dimethylamino)pyrimidin-5-yl)-2-fluorophenyl)ethyl)quinolin-4-amine], for which the IC50 fell in the range of 1000 to 10000 nM.

On to `C[C@@H](Nc1c(Cl)cnc2ccccc12)c1cc(-c2cnc3[nH]ccc3c2)ccc1F` [Example 537, (R)-3-chloro-N-(1-(2-fluoro-5-(1H-pyrrolo[2,3-b]pyridin-5-yl)phenyl)ethyl)quinolin-4-amine], for which the IC50 was less than 1000 nM.

For `Cc1nc2ccccc2c(N[C@H](C)c2cc(Br)ccc2F)c1Cl` [Example 538, (R)—N-(1-(5-bromo-2-fluorophenyl)ethyl)-3-chloro-2-methylquinolin-4-amine], the IC50 was 1000 to 10000 nM.

Consider `C[C@@H](Nc1c(Cl)cnc2ccccc12)c1cc(-c2cccc(C#N)c2)ccc1F` [Example 539, (R)-3′-(1-((3-chloroquinolin-4-yl)amino)ethyl)-4′-fluoro-[1,1′-biphenyl]-3-carbonitrile], for which the IC50 was less than 1000 nM.

Take `C[C@@H](Nc1c(Cl)cnc2ccc(-c3ccncc3)cc12)c1cc(-c2cncnc2)ccc1F` [Example 540, (R)-3-chloro-N-(1-(2-fluoro-5-(pyrimidin-5-yl)phenyl)ethyl)-6-(pyridin-4-yl)quinolin-4-amine]: the IC50 is less than 1000 nM.

In the case of `C[C@@H](Nc1c(Cl)cnc2ccccc12)c1cc(-c2cncc(C#N)c2)ccc1F` [Example 541, (R)-5-(3-(1-((3-chloroquinolin-4-yl)amino)ethyl)-4-fluorophenyl)nicotinonitrile], the IC50 fell in the range of 1000 to 10000 nM.

Regarding `C[C@@H](Nc1c(Cl)cnc2ccccc12)c1cc(-c2cncs2)ccc1F` [Example 542, (R)-3-chloro-N-(1-(2-fluoro-5-(thiazol-5-yl)phenyl)ethyl)quinolin-4-amine], the IC50 is less than 1000 nM.

As for `COc1ncc(-c2ccc(F)c([C@@H](C)Nc3c(Cl)cnc4ccccc34)c2)cn1` [Example 543, (R)-3-chloro-N-(1-(2-fluoro-5-(2-methoxypyrimidin-5-yl)phenyl)ethyl)quinolin-4-amine], the IC50 was in the range of 10000 to 25000 nM.

For the compound `C[C@@H](Nc1c(Cl)cnc2ccc(F)cc12)c1cc(-c2cncnc2)ccc1F` [Example 544, (R)-3-chloro-6-fluoro-N-(1-(2-fluoro-5-(pyrimidin-5-yl)phenyl)ethyl)quinolin-4-amine], the IC50 was less than 1000 nM.

Turning to `C[C@@H](Nc1c(Cl)cnc2ccc(Cl)cc12)c1cc(-c2cncnc2)ccc1F` [Example 545, (R)-3,6-dichloro-N-(1-(2-fluoro-5-(pyrimidin-5-yl)phenyl)ethyl)quinolin-4-amine], the IC50 is less than 1000 nM.

As to `C[C@@H](Nc1ccnc2ccc(Br)cc12)c1cc(-c2cncnc2)ccc1F` [Example 546, (R)-6-bromo-N-(1-(2-fluoro-5-(pyrimidin-5-yl)phenyl)ethyl)quinolin-4-amine], the IC50 lay within 10000 to 25000 nM.

Take `C[C@@H](Nc1c(Cl)cnc2ccccc12)c1cc(-c2ccccc2N)ccc1F` [Example 547, (R)—N-(1-(2′-amino-4-fluoro-[1,1′-biphenyl]-3-yl)ethyl)-3-chloroquinolin-4-amine]: the IC50 is 1000 to 10000 nM.

As for `COc1ccncc1-c1ccc(F)c([C@@H](C)Nc2c(Cl)cnc3ccccc23)c1` [Example 548, (R)-3-chloro-N-(1-(2-fluoro-5-(4-methoxypyridin-3-yl)phenyl)ethyl) quinolin-4-amine], the IC50 is less than 1000 nM.

As for `COc1ccccc1-c1ccc(F)c([C@@H](C)Nc2c(Cl)cnc3ccccc23)c1` [Example 549, (R)-3-chloro-N-(1-(4-fluoro-2′-methoxy-[1,1′-biphenyl]-3-yl)ethyl)quinolin-4-amine], the IC50 lay within 1000 to 10000 nM.

`C[C@@H](Nc1c(Cl)cnc2ccc(-c3cnn(C)c3)cc12)c1cc(-c2cncnc2)ccc1F` [Example 550, (R)-3-chloro-N-(1-(2-fluoro-5-(pyrimidin-5-yl)phenyl)ethyl)-6-(1-methyl-1H-pyrazol-4-yl)quinolin-4-amine]: the IC50 was less than 1000 nM.

In the case of `C[C@@H](Nc1c(Cl)cnc2ccccc12)c1cc(-c2cncc(C(=O)N3CCOCC3)c2)ccc1F` [Example 551, (R)-(5-(3-(1-((3-chloroquinolin-4-yl)amino)ethyl)-4-fluorophenyl)pyridin-3-yl)(morpholino)methanone], the IC50 is 1000 to 10000 nM.

As for `C[C@@H](Nc1c(Cl)cnc2ccccc12)c1cc(-c2ccccc2C#N)ccc1F` [Example 552, (R)-3′-(1-((3-chloroquinolin-4-yl)amino)ethyl)-4′-fluoro-[1,1′-biphenyl]-2-carbonitrile], the IC50 is less than 1000 nM.

Turning to `C[C@@H](Nc1c(Cl)cnc2ccc(-c3cnc(C(C)(C)O)nc3)cc12)c1cc(-c2cccnc2)ccc1F` [Example 553, (R)-2-(5-(3-chloro-4-((1-(2-fluoro-5-(pyridin-3-yl)phenyl)ethyl)amino)quinolin-6-yl)pyrimidin-2-yl)propan-2-ol], the IC50 was less than 1000 nM.

`Cc1nc2cc(F)c(-c3cnc(C(C)(C)O)nc3)cc2c(N[C@H](C)c2cc(CC(N)=O)ccc2F)c1Cl` [Example 554, (R)-2-(3-(1-((3-chloro-7-fluoro-6-(2-(2-hydroxypropan-2-yl)pyrimidin-5-yl)-2-methylquinolin-4-yl)amino)ethyl)-4-fluorophenyl)acetamide]: the IC50 is less than 1000 nM.

On to `C[C@@H](Nc1c(Cl)cnc2cccnc12)c1cc(-c2cncnc2)ccc1F` [Example 555, (R)-3-chloro-N-(1-(2-fluoro-5-(pyrimidin-5-yl)phenyl)ethyl)-1,5-naphthyridin-4-amine], for which the IC50 was less than 1000 nM.

In the case of `Cc1nc2ncccc2c(N[C@H](C)c2cc(-c3cncnc3)ccc2F)c1Cl` [Example 556, (R)-3-chloro-N-(1-(2-fluoro-5-(pyrimidin-5-yl)phenyl)ethyl)-2-methyl-1,8-naphthyridin-4-amine], the IC50 was in the range of 10000 to 25000 nM.

`CC[C@H](Nc1c(Cl)cnc2ccccc12)c1cc(-c2cncnc2)ccc1F` [Example 557, (S)-3-chloro-N-(1-(2-fluoro-5-(pyrimidin-5-yl)phenyl)propyl)quinolin-4-amine]: the IC50 fell in the range of 1000 to 10000 nM.

With `CC[C@@H](Nc1c(Cl)cnc2ccccc12)c1cc(-c2cncnc2)ccc1F` [Example 558, (R)-3-chloro-N-(1-(2-fluoro-5-(pyrimidin-5-yl)phenyl)propyl)quinolin-4-amine], the concentration for half-maximal inhibition (IC50) is less than 1000 nM.

Regarding `Fc1ccc(-c2cncnc2)cc1[C@H](Nc1c(Cl)cnc2ccccc12)C(F)F` [Example 559, (S)-3-chloro-N-(2,2-difluoro-1-(2-fluoro-5-(pyrimidin-5-yl)phenyl)ethyl)quinolin-4-amine], the IC50 is less than 1000 nM.

For the compound `Cc1nc2cc(F)c(-c3cnc(N4CCNC(=O)C4)nc3)cc2c(N[C@H](C)c2cc(Br)ccc2F)c1Cl` [Example 560, (R)-4-(5-(4-((1-(5-bromo-2-fluorophenyl)ethyl)amino)-3-chloro-7-fluoro-2-methylquinolin-6-yl)pyrimidin-2-yl)piperazin-2-one], the IC50 fell in the range of 1000 to 10000 nM.

Take `Cc1nc2cc(F)c(-c3cnc(N4CCNC(=O)C4)nc3)cc2c(N[C@H](C)c2cc(C#N)ccc2F)c1Cl` [Example 561, (R)-3-(1-((3-chloro-7-fluoro-2-methyl-6-(2-(3-oxopiperazin-1-yl)pyrimidin-5-yl)quinolin-4-yl)amino)ethyl)-4-fluorobenzonitrile]: the IC50 is less than 1000 nM.

For `CC(Nc1c(Cl)cnc2ccc(-c3cnc(N4CCNC(=O)C4)nc3)cc12)c1nc(N)ccc1F` (stereo not shown) [Example 562, 4-(5-(4-((1-(6-amino-3-fluoropyridin-2-yl)ethyl)amino)-3-chloroquinolin-6-yl)pyrimidin-2-yl) piperazin-2-one], the IC50 is less than 1000 nM.

In the case of `C[C@H](Nc1c(Cl)cnc2ccc(-c3cnc(C(C)(C)O)nc3)cc12)[C@H]1CCCN(S(C)(=O)=O)C1` [Example 563, 2-(5-(3-chloro-4-(((S)-1-((S)-1-(methylsulfonyl)piperidin-3-yl)ethyl)amino)quinolin-6-yl)pyrimidin-2-yl)propan-2-ol], the IC50 fell in the range of 1000 to 10000 nM.

Take `C[C@H](Nc1c(Cl)cnc2ccc(-c3cnc(C(C)(C)O)nc3)cc12)[C@H]1CCCN(S(=O)(=O)c2cnn(C)c2)C1` [Example 564, 2-(5-(3-chloro-4-(((S)-1-((S)-1-((1-methyl-1H-pyrazol-4-yl)sulfonyl)piperidin-3-yl)ethyl)amino)quinolin-6-yl)pyrimidin-2-yl)propan-2-ol]: the IC50 lay within 1000 to 10000 nM.

On to `C[C@H](Nc1c(Cl)cnc2ccc(-c3cnc(C(C)(C)O)nc3)cc12)[C@H]1CCCN(C(=O)c2cn[nH]c2)C1` [Example 565, ((S)-3-((S)-1-((3-chloro-6-(2-(2-hydroxypropan-2-yl)pyrimidin-5-yl)quinolin-4-yl)amino)ethyl)piperidin-1-yl)(1H-pyrazol-4-yl)methanone], for which the IC50 fell in the range of 10000 to 25000 nM.

On to `C[C@H](Nc1c(Cl)cnc2ccc(-c3cnc(C(C)(C)O)nc3)cc12)[C@H]1CCCN(C(=O)c2cccnc2)C1` [Example 566, ((S)-3-((S)-1-((3-chloro-6-(2-(2-hydroxypropan-2-yl)pyrimidin-5-yl)quinolin-4-yl)amino)ethyl)piperidin-1-yl)(pyridin-3-yl)methanone], for which the IC50 was in the range of 1000 to 10000 nM.
